Assay [1] concerns primary CD34+/CD133+ HSPCs from healthy donors. The experiment in a line: Erythroid differentiation of primary CD34+/CD133+ HSPCs with EPO (flow cytometry CD235a/CD71). To be noted: 0.1 μM nilotinib from 3 to 7 d or 7 to 10 d of culture. The assay is classed as cell-based, human. Here is the method: (§1) FIG. 8. Nilotinib promotes erythropoiesis of primary CD34^+/CD133^+ HSPCs from healthy donors. (A) Primary human CD34^+/CD133^+ cells were differentiated with erythropoietin (EPO) and 0.1 μM nilotinib was added from 3 to 7 d of culture and the number of life cells calculated by the trypan blue exclusion assay. (B, C) Cells were stained with anti-CD235a-APC and anti-CD71-FITC, and erythroid differentiation was then analyzed by flow cytometry. Representative dot plots at different differentiation times (B) and overlapped histogram of CD235a at 7 d and the mean fluorescence intensity (MFI) at different differentiation times (C) are shown.
as §1, with “FIG. 9.” for “FIG. 8.”, “with EPO” for “with erythropoietin (EPO)”, “from 7” for “from 3”, “to 10” for “to 7”, “at 10” for “at 7”, “shown. […]” for “shown.”

Assay [2] relates to caspase-1. The experiment in a line: Caspase-1 activity assay in zebrafish larvae (Z-YVAD-AFC). It is filed as in vivo, Zebrafish (Danio rerio H.). Here is the method:
FIG. 6. NLRP1 is activated by phosphorylation of the linker domain after activation of ZAKα and pharmacological inhibition of this signaling pathway promotes erythropoiesis in DBA. (A-D) Number of neutrophils (A-C), and caspase-1 activity (D) in 2 dpf larvae obtained by injection of one-cell stage embryos with human NLRP1 (wild type-WT, S107A and S107D) and treated from 1 to 2 dpf by bath immersion with 1 μM nilotinib (B-D). Representative images of neutrophils (arrows) are also shown in C. (E, F) BMMCs from a DBA patient were incubated for 2 weeks in human methylcellulose complete medium at 37° C. in the presence or absence of the indicated concentrations of nilotinib, and colonies were counted using standard morphological criteria. Each dot represents one individual and the mean±SEM for each group is also shown. P values were calculated by one-way ANOVA and Tukey's multiple range test. n.s., non-significant; *P<0.05; **P<0.01; ***P<0.001; ****P<0.0001. […]
Caspase-1 activity was determined with the fluorometric substrate Z-YVAD 7-Amido-4-trifluoromethylcoumarin (Z-YVAD-AFC, caspase-1 substrate VI, Calbiochem). […] After incubation, the fluorescence of AFC released from the Z-YVAD-AFC substrate was measured with a FLUOstart spectrofluorometer (BGM, LabTechnologies) at an excitation wavelength of 405 nm and an emission wavelength of 492 nm.

Assay [3] concerns caspase-1. Nature of the assay: CASP1 activity in RPS19-edited model of DBA. It is filed as cell-based, human. To be noted: 0.1 μM nilotinib (FIG. 14D). Here is the method:
FIG. 14. Nilotinib promotes erythropoiesis in a human RPS19-edited model of DBA. RPS19 gene was edited in primary human CD34^+/CD133^+ cells with CRISPR-Cas9 technology and the cells were then differentiated with EPO for 13 days in the presence of absence of 0.1 μM nilotinib. (A) Representative flow cytometry dot plots of CD235-APC vs. CD71-FITC from control and RPS19-edited cells at 13 days of differentiation with EPO. (B) Cell surface expression of CD235A from control (mock) and RPS19-deficient cells treated with DMSO or nilotinib. (C) Percentage of mature erythrocytes (CD71^−/CD235A^+) vs. percentage of erythroid progenitors (CD71^+/CD235A^−) in RPS19-deficient cells treated with DMSO or 0.1 μM nilotinib. (D) CASP1 activity of control and RPS19-deficient cells treated with DMSO or 0.1 μM nilotinib. MFI, mean fluorescence intensity.

From patent US20260240846A1, “ZAK ALPHA KINASE (MAP3K20) INHIBITORS FOR USE IN THE TREATMENT OF ANEMIA” (UNIVERSIDAD DE MURCIA, priority 2023, published 2026) come the findings set out here.

Each structure is given as a SMILES string.

Consider `Cc1cn(-c2cc(NC(=O)c3ccc(C)c(Nc4nccc(-c5cccnc5)n4)c3)cc(C(F)(F)F)c2)cn1` [nilotinib], for which, in assay [1], the “erythropoiesis of primary CD34+/CD133+ HSPCs” value was “accelerated erythropoiesis”. In addition, the “caspase-1 activation induced by NLRP1 with phosphomimetic S107D mutation” value in the assay with caspase-1 [2] (larvae expressing human NLRP1 S107D, 1 μM nilotinib 1 to 2 dpf) was “failed to reverse”. In addition, the “caspase-1 activation induced by wild type NLRP1” value with caspase-1 [2] (larvae expressing human wild type NLRP1, 1 μM nilotinib 1 to 2 dpf) was “able to abrogate”. Further, the “exacerbated caspase-1 activity of RPS19-deficient cells” value in the assay with caspase-1 [3] is “reduced to control levels”.
